Several values for one entry are separate records, joined by “and”; a condition that tells them apart may be missing. Identical values can stand only once.
Tests used:
[1] = Pharmacokinetic study after single oral administration to mice; format: in vivo; details: male, ICR, mouse, plasma
Source text: (§1) The validated method was applied to pharmacokinetic studies of DA-7010 in mice, rats, and dogs. The protocols for the animal study were approved by the Department of Laboratory Animals, Institutional Animal Care and Use Committee (IACUC), on the Sungsim Campus of the Catholic University of Korea (approval no. 2014-022) or by IACUC of Biotoxtech (Cheongju, South Korea) (approval no. 140765). Male ICR mice and Sprague-Dawley rats (~8 weeks old) were purchased from Samtaco Bio (Osan, South Korea). Male beagle dogs (~10 months old), which are products from Beijing Marshall Biotechnology (Beijing, China), were used for this study. The accommodation and handling procedures for the animals were similar to those previously reported. Prior to dosing, the animals were fasted for 15 h and allowed to drink water freely. DA-7010 hydrochloride was administered in the pharmacokinetic study, and the dose of DA-7010 described below is based on the free base form of DA-7010.
DA-7010 (dissolved in distilled water) at a dose of 3 mg (in 10 mL) per kilogram was administered orally to the mouse groups A and B (n = 6 each) using gastric gavage. Blood samples (~ 50 μL) were collected into separate heparinized capillary tubes from the retro-orbital plexuses of mice that were under light anesthesia, which was achieved by isoflurane inhalation at 5, 30, 120, and 480 min for group A and 15, 60, 240, and 600 min for group B following the oral administration of DA-7010. The collected sample was immediately centrifuged, and a 25 μL plasma sample was stored at −20 °C until it was used for the LC-MS/MS analyses of DA-7010.
(§2) The pharmacokinetic parameters were calculated using noncompartmental analyses (WinNonlin; Pharsight Corporation, Mountain View, CA, USA). The AUC0-∞ was calculated using the trapezoidal rule-extrapolation method. The Cmax and Tmax were read directly from the experimental data.

[2] = Pharmacokinetic study after single oral administration to rats; format: in vivo; details: male, Sprague-Dawley, plasma, rat
Source text: as §1
For the rat, the carotid artery was cannulated for serial blood sampling. DA-7010 (dissolved in distilled water) at a dose of 3 mg (in 2 mL) per kilogram was administered orally to the rats (n = 7) using gastric gavage. Blood samples (~50 μL) were collected at 0, 5, 10, 20, 30, 60, 120, 240, 360, 480, and 720 min via the carotid artery following the oral administration of the drug. The cannula was flushed immediately after each blood sampling to prevent blood clotting using a 0.3 mL heparinized 0.9% NaCl-injectable solution (20 units/mL). The same procedure described above was used for the collection and storage of the plasma samples.
as §2

[3] = Pharmacokinetic study after single oral administration to dogs; format: in vivo
Source text: as §1
For the oral administration of DA-7010 in dogs, 3 mg/kg DA-7010 was loaded in a gelatin capsule (size 12, Torpac Inc., Fairfield, NJ, USA) without other excipients. Approximately 2 mL of blood was collected via the cephalic vein using a heparinized (100 IU/mL) 23 G syringe at pre-dose and 15, 30, 45, 60, 120, 240, 360, 480, 720, and 1440 min after the administration of the drug. The collection and storage of each plasma sample (25 μL) and extra plasma sample were performed using the same procedure described above.
as §2

[4] = Stability of DA-7010 in mouse plasma under various storage conditions; format: in vitro ADME; details: n = 3, mean ± SD
Procedure: (§3) The stability of DA-7010 in the plasma from the mice, rats, and dogs was evaluated by analyzing 3 replicates of low, medium, and high QC samples under various storage conditions: the bench-top short-term stability (at room temperature for 8 h), post-preparative stability (prepared samples kept in LC vials at 4 °C for 24 h), freeze–thaw stability (3 freeze/thaw (−20 °C/room temperature) cycles), and long-term freezing stability (−20 °C for 1 month). The analyte was determined to be stable when the estimated recovery (determined concentration/nominal concentration × 100%) was in the range of 85–115% and the RSD was < 15%.

[5] = Stability of DA-7010 in rat plasma under various storage conditions; format: in vitro ADME; details: n = 3, mean ± SD
Procedure: as §3

[6] = Stability of DA-7010 in dog plasma under various storage conditions; format: in vitro ADME; details: n = 3, mean ± SD
Procedure: as §3

[7] = Stability of DA-7010 in plasma, summary over all species; format: in vitro ADME, mice, rats, and dogs
Procedure: as §3

[8] = test system: Gram-negative bacteria (except for Pseudomonas aeruginosa); design: method as in earlier work; details: cited from earlier work
[9] = test system: carbapenem-resistant Acinetobacter baumannii; design: method as in earlier work; details: mice systemically infected with carbapenem-resistant Acinetobacter baumannii; cited from earlier work
[10] = mice, single oral dose 3 mg/kg, from mean concentration–time profile
[11] = representative sample 4 h after oral 3 mg/kg, read-out: Plasma concentration of DA-7010
[12] = rats (n = 7), single oral dose 3 mg/kg, mean ± SD
[13] = male, beagle, dog, plasma, dogs (n = 4), single oral dose 3 mg/kg in gelatin capsule, mean ± SD
[14] = 3 freeze/thaw (–20 °C/room temperature) cycles, nominal 30 ng/mL
[15] = 3 freeze/thaw (–20 °C/room temperature) cycles, nominal 400 ng/mL
[16] = 3 freeze/thaw (–20 °C/room temperature) cycles, nominal 8000 ng/mL
[17] = long term (‒20 °C over 1 month), nominal 30 ng/mL
[18] = long term (‒20 °C over 1 month), nominal 400 ng/mL
[19] = long term (‒20 °C over 1 month), nominal 8000 ng/mL
[20] = prepared plasma samples in LC vials, post-preparative (prepared samples 4 °C 24 h), nominal 30 ng/mL
[21] = prepared plasma samples in LC vials, post-preparative (prepared samples 4 °C 24 h), nominal 400 ng/mL
[22] = prepared plasma samples in LC vials, post-preparative (prepared samples 4 °C 24 h), nominal 8000 ng/mL
[23] = short term (room temperature 8 h), nominal 30 ng/mL
[24] = short term (room temperature 8 h), nominal 400 ng/mL
[25] = short term (room temperature 8 h), nominal 8000 ng/mL

## C[C@@H]1COB2O[C@H](CN)c3cccc(c32)O1 [DA-7010, ((2S,7R)-7-methyl-7,8-dihydro-2H-1,6,9-trioxa-9a-borabenzo[cd]azulen-2-yl)methanamine]
[1]; [10]
  Cmax: 1280 ng/mL
  Tmax: 0.25 h
[1]; mice, single oral dose 3 mg/kg, from mean concentration–time profile (n = 6 per point)
  AUC(0-inf): 3920 ng·h/mL
[1]; mice, single oral dose 3 mg/kg, from mean concentration–time profile, read-out: Terminal half-life
  half-life: 2.08 h
[1]; [11]
  concentration at 4 h: 334 ng/mL
[2]; [11]
  concentration at 4 h: 648 ng/mL
[2]; [12]
  AUC(0-inf): 5320 ng·h/mL
  Cmax: 1330 ± 427 ng/mL
[2]; rats (n = 7), single oral dose 3 mg/kg, mean ± SD, read-out: Terminal half-life
  half-life: 2.88 ± 0.81 h
[2]; rats (n = 7), single oral dose 3 mg/kg, median (range)
  Tmax: 0.333 h
[3]; [13]
  AUC(0-inf): 21800 ng·h/mL
  Cmax: 1820 ± 90.1 ng/mL
[3]; male, beagle, dog, plasma, dogs (n = 4), single oral dose 3 mg/kg in gelatin capsule, mean ± SD, read-out: Terminal half-life
  half-life: 7.53 ± 0.563 h
[3]; male, beagle, dog, plasma, dogs (n = 4), single oral dose 3 mg/kg in gelatin capsule, median (range)
  Tmax: 1 h
[3]; male, beagle, plasma, dog, representative sample 4 h after oral 3 mg/kg, read-out: Plasma concentration of DA-7010
  concentration at 4 h: 1950 ng/mL
[3]; single oral dose 3 mg/kg
  Systemic exposure in dogs relative to mice or rats: approximately four times higher
[4]; [14]
  recovery at 30 ng/mL: 109 ± 6.63%
[4]; [15]
  recovery at 400 ng/mL: 91.2 ± 2.22%
[4]; [16]
  recovery at 8000 ng/mL: 87.7 ± 2.58%
[4]; [17]
  recovery at 1 month, 30 ng/mL: 106 ± 1.54%
[4]; [18]
  recovery at 1 month, 400 ng/mL: 95.5 ± 3.04%
[4]; [19]
  recovery at 1 month, 8000 ng/mL: 88.5 ± 1.77%
[4]; [20]
  recovery at 24 h, 30 ng/mL: 106 ± 5.14%
[4]; [21]
  recovery at 24 h, 400 ng/mL: 92.7 ± 2.58%
[4]; [22]
  recovery at 24 h, 8000 ng/mL: 89.9 ± 7.84%
[4]; [23]
  recovery at 8 h, 30 ng/mL: 109 ± 4.97%
[4]; [24]
  recovery at 8 h, 400 ng/mL: 97.5 ± 6.48%
[4]; [25]
  recovery at 8 h, 8000 ng/mL: 89 ± 2.24%
[5]; [14]
  recovery at 30 ng/mL: 107 ± 5.92%
[5]; [15]
  recovery at 400 ng/mL: 94.8 ± 6.2%
[5]; [16]
  recovery at 8000 ng/mL: 100 ± 0.407%
[5]; [17]
  recovery at 1 month, 30 ng/mL: 85.5 ± 0.618%
[5]; [18]
  recovery at 1 month, 400 ng/mL: 95.2 ± 3.3%
[5]; [19]
  recovery at 1 month, 8000 ng/mL: 107 ± 2.67%
[5]; [20]
  recovery at 24 h, 30 ng/mL: 95.5 ± 3.65%
[5]; [21]
  recovery at 24 h, 400 ng/mL: 101 ± 1.33%
[5]; [22]
  recovery at 24 h, 8000 ng/mL: 111 ± 4.06%
[5]; [23]
  recovery at 8 h, 30 ng/mL: 110 ± 4.64%
[5]; [24]
  recovery at 8 h, 400 ng/mL: 97.9 ± 0.394%
[5]; [25]
  recovery at 8 h, 8000 ng/mL: 104 ± 0.647%
[6]; [14]
  recovery at 30 ng/mL: 110 ± 3.32%
[6]; [15]
  recovery at 400 ng/mL: 107 ± 2.01%
[6]; [16]
  recovery at 8000 ng/mL: 114 ± 0.0718%
[6]; [17]
  recovery at 1 month, 30 ng/mL: 113 ± 0.5%
[6]; [18]
  recovery at 1 month, 400 ng/mL: 97.3 ± 1.22%
[6]; [19]
  recovery at 1 month, 8000 ng/mL: 111 ± 3.13%
[6]; [20]
  recovery at 24 h, 30 ng/mL: 110 ± 5.48%
[6]; [21]
  recovery at 24 h, 400 ng/mL: 108 ± 1.72%
[6]; [22]
  recovery at 24 h, 8000 ng/mL: 116 ± 2.34%
[6]; [23]
  recovery at 8 h, 30 ng/mL: 107 ± 3.08%
[6]; [24]
  recovery at 8 h, 400 ng/mL: 92.9 ± 1.62%
[6]; [25]
  recovery at 8 h, 8000 ng/mL: 108 ± 1.22%
[7]; 8 h at room temperature, 24 h in LC vial at 4 °C after preparation, 1 month at –20 °C
  Stability, mean recoveries: > 85.5%
[7]; after three freeze/thaw (–20 °C/room temperature) cycles
  Stability, mean recoveries: > 87.7%
[8]
  minimum inhibitory concentration (MIC): 0.25 to 2 µg/mL
[9]
  ED50 (effective oral dose that protected 50% of mice): 3 mg/kg and 1.9 to 3 mg/kg
